Literature values as cited in patent EP2266541A1, “Solid pharmaceutical composition comprising rivaroxaban” (Krka Tovarna Zdravil, D.D., Novo Mesto, priority 2009, dated 2010).

Settings: stated in the background section, no method given

For `O=C(NC[C@H]1CN(c2ccc(N3CCOCC3=O)cc2)C(=O)O1)c1ccc(Cl)s1` [Rivaroxaban, 5-chloro-N-{[(5S)-2-oxo-3-[4-(3-oxomorpholin-4-yl)phenyl]oxazolidin-5-yl]methyl}thiophene-2-carboxamide], the solubility in water is listed as “about 7 mg/L”.
